# According to patent publication US20250388567A1, “SELECTIVE G PROTEIN-COUPLED RECEPTOR KINASE 5 INHIBITORS, COMPOSITIONS, AND METHODS OF USE” (Purdue Research Foundation, priority 2022, published 2025):
# Target: human GRK5 (Homo sapiens (Human), UniProt P34947)
# Experiment: GRK5 radiometric inhibition assay (tubulin phosphorylation, [γ-32P]-ATP)
# Format: biochemical
# Conditions: 50 nM GRK, 500 nM tubulin, 5 μM ATP
# Experimental: (§1) Reactions were quenched at 8 min by addition of 5 μL of 4×SDS gel loading dye to the 10 μL reactions. […] Gels were dried, exposed to a storage phosphor screen overnight, and scanned using a Personal Molecular Imager (Bio-Rad). […] Outliers were eliminated automatically at a 1% Q value. Experiments were performed at least three times.
# (§2) Standard control compounds are run during each assay to assess consistency across time, experimenters, and subtle changes in assay conditions that are sometimes required to keep compounds soluble and dispersed (e.g., through addition of DDM or 3% DMSO).
# human GRK5, sequence (P34947 whole entry): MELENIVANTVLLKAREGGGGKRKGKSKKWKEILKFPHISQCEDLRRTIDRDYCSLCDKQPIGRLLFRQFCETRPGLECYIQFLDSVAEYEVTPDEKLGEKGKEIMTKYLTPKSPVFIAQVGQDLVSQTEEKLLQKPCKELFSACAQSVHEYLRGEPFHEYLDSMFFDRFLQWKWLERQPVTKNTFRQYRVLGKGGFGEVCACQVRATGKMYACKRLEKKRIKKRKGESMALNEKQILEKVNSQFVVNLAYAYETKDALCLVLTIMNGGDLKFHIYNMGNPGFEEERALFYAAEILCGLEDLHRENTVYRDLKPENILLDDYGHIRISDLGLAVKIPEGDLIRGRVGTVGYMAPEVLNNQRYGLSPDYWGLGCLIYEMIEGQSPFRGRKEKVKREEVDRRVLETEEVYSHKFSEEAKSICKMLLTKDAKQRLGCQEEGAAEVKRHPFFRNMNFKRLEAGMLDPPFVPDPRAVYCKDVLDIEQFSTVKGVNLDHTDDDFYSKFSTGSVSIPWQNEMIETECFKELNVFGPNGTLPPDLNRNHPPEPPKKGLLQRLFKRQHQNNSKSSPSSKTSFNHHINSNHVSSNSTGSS
row,IC50,Structure (SMILES)
1,> 10000 nM,COCO[C@@H]1Cc2ccccc2[C@H]1NC(=O)c1c(C)[nH]c(/C=C2\C(=O)Nc3ccc(C(=O)N[C@H](C)c4ccccc4)cc32)c1C [Compound 23]
2,101 to 999 nM,Cc1[nH]c(/C=C2\C(=O)Nc3ccc(C(=O)N[C@H](C)c4ccccc4)cc32)c(C)c1C(=O)N[C@@H]1c2ccccc2CC[C@@H]1O [Compound 24]
3,101 to 999 nM,Cc1[nH]c(/C=C2\C(=O)Nc3ccc(C(=O)N[C@H](C)c4ccccc4)cc32)c(C)c1C(=O)N[C@H]1c2ccccc2CC[C@H]1O [Compound 25]
4,101 to 999 nM,Cc1[nH]c(/C=C2\C(=O)Nc3ccc(C(=O)N[C@H](C)c4ccccc4)cc32)c(C)c1C(=O)NC1c2ccccc2OCC1O (stereo partly drawn) [Compound 26]
5,1 to 100 nM,Cc1[nH]c(/C=C2\C(=O)Nc3ccc(C(=O)N[C@H](C)c4ccccc4)cc32)c(C)c1C(=O)NCC(O)c1ccco1 (stereo partly drawn) [Compound 27]
6,101 to 999 nM,COc1cccc(C(O)C(=O)Nc2c(C)[nH]c(/C=C3\C(=O)Nc4ccc(C(=O)N[C@H](C)c5ccc(F)cc5)cc43)c2C)c1 (stereo partly drawn) [Compound 28]
7,1 to 100 nM,Cc1[nH]c(/C=C2\C(=O)Nc3ccc(C(=O)N[C@H](C)c4ccccc4)cc32)c(C)c1C(=O)NCc1ccco1 [Compound 29]
8,1 to 100 nM,Cc1[nH]c(/C=C2\C(=O)Nc3ccc(C(=O)N[C@H](C)c4ccccc4)cc32)c(C)c1C(=O)NCC1CCCO1 (stereo partly drawn) [Compound 30]
9,1 to 100 nM,Cc1[nH]c(/C=C2\C(=O)Nc3ccc(C(=O)N[C@H](C)c4ccccc4)cc32)c(C)c1C(=O)NC(C)c1ccco1 (stereo partly drawn) [Compound 31]
10,1 to 100 nM,Cc1[nH]c(/C=C2\C(=O)Nc3ccc(C(=O)N[C@H](C)c4ccccc4)cc32)c(C)c1C(=O)NCC(O)c1ccoc1 (stereo partly drawn) [Compound 32]
11,101 to 999 nM,Cc1[nH]c(/C=C2\C(=O)Nc3ccc(C(=O)N[C@H](C)c4ccccc4)cc32)c(C)c1C(=O)Nc1nc2ccccc2[nH]1 [Compound 33]
12,1 to 100 nM,Cc1[nH]c(/C=C2\C(=O)Nc3ccc(C(=O)N[C@H](C)c4ccccc4)cc32)c(C)c1C(=O)N[C@H]1Cc2ccccc2[C@H]1O [Compound 34]
13,1 to 100 nM,Cc1[nH]c(/C=C2\C(=O)Nc3ccc(C(=O)N[C@H](C)c4ccccc4)cc32)c(C)c1C(=O)NC[C@H]1CCCO1 [Compound 36]
14,1 to 100 nM,Cc1[nH]c(/C=C2\C(=O)Nc3ccc(C(=O)N[C@H](C)c4ccccc4)cc32)c(C)c1C(=O)NC[C@@H]1CCCO1 [Compound 37]
15,1 to 100 nM,Cc1[nH]c(/C=C2\C(=O)Nc3ccc(C(=O)N[C@H](C)c4ccccc4)cc32)c(C)c1C(=O)NCC1CCCCO1 (stereo partly drawn) [Compound 38]
16,1 to 100 nM,Cc1[nH]c(/C=C2\C(=O)Nc3ccc(C(=O)N[C@H](C)c4ccccc4)cc32)c(C)c1C(=O)NCC1CC(=O)c2ccccc2O1 (stereo partly drawn) [Compound 41]
17,101 to 999 nM,Cc1[nH]c(/C=C2\C(=O)Nc3ccc(C(=O)N[C@H](C)c4ccccc4)cc32)c(C)c1C(=O)NC1CCS(=O)(=O)CC1 [Compound 42]
18,1000 to 10000 nM,Cc1[nH]c(/C=C2\C(=O)Nc3ccc(C(=O)N[C@H](C)c4ccccc4)cc32)c(C)c1C(=O)NC1CCOCC1 [Compound 43]
19,1 to 100 nM,Cc1[nH]c(/C=C2\C(=O)Nc3ccc(C(=O)N[C@H](C)c4ccccc4)cc32)c(C)c1C(=O)NCC(O)C1CCOC1 (stereo partly drawn) [Compound 44]

# Target: bovine GRK2 (Bos taurus (Bovine), UniProt P21146)
# Experiment: GRK2 radiometric inhibition assay (tubulin phosphorylation, [γ-32P]-ATP)
# Format: biochemical
# Conditions: 50 nM GRK, 500 nM tubulin, 5 μM ATP
# Experimental: as §1, §2
# bovine GRK2, sequence (P21146 whole entry): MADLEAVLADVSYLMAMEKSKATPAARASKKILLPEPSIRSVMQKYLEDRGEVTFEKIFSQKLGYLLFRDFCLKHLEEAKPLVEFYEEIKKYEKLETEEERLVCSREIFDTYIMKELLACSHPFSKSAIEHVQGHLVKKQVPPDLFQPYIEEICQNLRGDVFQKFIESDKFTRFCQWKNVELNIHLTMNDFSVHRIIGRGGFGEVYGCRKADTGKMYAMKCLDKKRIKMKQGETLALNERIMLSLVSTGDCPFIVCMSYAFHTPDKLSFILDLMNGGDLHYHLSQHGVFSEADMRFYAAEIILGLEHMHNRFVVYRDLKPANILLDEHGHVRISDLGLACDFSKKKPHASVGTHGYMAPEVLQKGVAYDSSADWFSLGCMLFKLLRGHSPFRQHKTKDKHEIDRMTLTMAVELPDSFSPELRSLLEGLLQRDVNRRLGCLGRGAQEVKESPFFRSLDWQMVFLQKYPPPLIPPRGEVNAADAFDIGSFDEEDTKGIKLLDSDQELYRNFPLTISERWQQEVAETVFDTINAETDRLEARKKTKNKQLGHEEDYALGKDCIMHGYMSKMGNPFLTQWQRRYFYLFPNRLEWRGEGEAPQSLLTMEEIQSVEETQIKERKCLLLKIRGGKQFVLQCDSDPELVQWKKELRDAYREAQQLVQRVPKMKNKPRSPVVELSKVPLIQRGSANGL
row,IC50,Structure (SMILES)
1,> 10000 nM,Cc1[nH]c(/C=C2\C(=O)Nc3ccc(C(=O)N[C@H](C)c4ccc(F)cc4)cc32)c(C)c1NC(=O)C(O)c1ccccc1 (stereo partly drawn) [Compound 1]
2,> 10000 nM,COCO[C@@H]1Cc2ccccc2[C@H]1NC(=O)c1c(C)[nH]c(/C=C2\C(=O)Nc3ccc(C(=O)N[C@H](C)c4ccccc4)cc32)c1C [Compound 23]
3,> 10000 nM,Cc1[nH]c(/C=C2\C(=O)Nc3ccc(C(=O)N[C@H](C)c4ccccc4)cc32)c(C)c1C(=O)N[C@@H]1c2ccccc2CC[C@@H]1O [Compound 24]
4,> 10000 nM,Cc1[nH]c(/C=C2\C(=O)Nc3ccc(C(=O)N[C@H](C)c4ccccc4)cc32)c(C)c1C(=O)N[C@H]1c2ccccc2CC[C@H]1O [Compound 25]
5,> 10000 nM,Cc1[nH]c(/C=C2\C(=O)Nc3ccc(C(=O)N[C@H](C)c4ccccc4)cc32)c(C)c1C(=O)NC1c2ccccc2OCC1O (stereo partly drawn) [Compound 26]
6,1000 to 10000 nM,Cc1[nH]c(/C=C2\C(=O)Nc3ccc(C(=O)N[C@H](C)c4ccccc4)cc32)c(C)c1C(=O)NCC(O)c1ccco1 (stereo partly drawn) [Compound 27]
7,> 10000 nM,COc1cccc(C(O)C(=O)Nc2c(C)[nH]c(/C=C3\C(=O)Nc4ccc(C(=O)N[C@H](C)c5ccc(F)cc5)cc43)c2C)c1 (stereo partly drawn) [Compound 28]
8,1000 to 10000 nM,Cc1[nH]c(/C=C2\C(=O)Nc3ccc(C(=O)N[C@H](C)c4ccccc4)cc32)c(C)c1C(=O)NCc1ccco1 [Compound 29]
9,1000 to 10000 nM,Cc1[nH]c(/C=C2\C(=O)Nc3ccc(C(=O)N[C@H](C)c4ccccc4)cc32)c(C)c1C(=O)NCC1CCCO1 (stereo partly drawn) [Compound 30]
10,1000 to 10000 nM,Cc1[nH]c(/C=C2\C(=O)Nc3ccc(C(=O)N[C@H](C)c4ccccc4)cc32)c(C)c1C(=O)NC(C)c1ccco1 (stereo partly drawn) [Compound 31]
11,1000 to 10000 nM,Cc1[nH]c(/C=C2\C(=O)Nc3ccc(C(=O)N[C@H](C)c4ccccc4)cc32)c(C)c1C(=O)NCC(O)c1ccoc1 (stereo partly drawn) [Compound 32]
12,1000 to 10000 nM,Cc1[nH]c(/C=C2\C(=O)Nc3ccc(C(=O)N[C@H](C)c4ccccc4)cc32)c(C)c1C(=O)Nc1nc2ccccc2[nH]1 [Compound 33]
13,1000 to 10000 nM,Cc1[nH]c(/C=C2\C(=O)Nc3ccc(C(=O)N[C@H](C)c4ccccc4)cc32)c(C)c1C(=O)N[C@H]1Cc2ccccc2[C@H]1O [Compound 34]
14,> 10000 nM,Cc1[nH]c(/C=C2\C(=O)Nc3ccc(C(=O)N[C@H](C)c4ccccc4)cc32)c(C)c1C(=O)NC[C@H]1CCCO1 [Compound 36]
15,1000 to 10000 nM,Cc1[nH]c(/C=C2\C(=O)Nc3ccc(C(=O)N[C@H](C)c4ccccc4)cc32)c(C)c1C(=O)NC[C@@H]1CCCO1 [Compound 37]
16,> 10000 nM,Cc1[nH]c(/C=C2\C(=O)Nc3ccc(C(=O)N[C@H](C)c4ccccc4)cc32)c(C)c1C(=O)NCC1CCCCO1 (stereo partly drawn) [Compound 38]
17,> 10000 nM,Cc1[nH]c(/C=C2\C(=O)Nc3ccc(C(=O)N[C@H](C)c4ccccc4)cc32)c(C)c1C(=O)NCC1CC(=O)c2ccccc2O1 (stereo partly drawn) [Compound 41]
18,> 10000 nM,Cc1[nH]c(/C=C2\C(=O)Nc3ccc(C(=O)N[C@H](C)c4ccccc4)cc32)c(C)c1C(=O)NC1CCS(=O)(=O)CC1 [Compound 42]
19,> 10000 nM,Cc1[nH]c(/C=C2\C(=O)Nc3ccc(C(=O)N[C@H](C)c4ccccc4)cc32)c(C)c1C(=O)NC1CCOCC1 [Compound 43]
20,> 10000 nM,Cc1[nH]c(/C=C2\C(=O)Nc3ccc(C(=O)N[C@H](C)c4ccccc4)cc32)c(C)c1C(=O)NCC(O)C1CCOC1 (stereo partly drawn) [Compound 44]
